Activity calls are given as the source filed them. The calls are words filed in the database; no cut-off is given here.
How the values were obtained:
BV-2 [1] = assay: Inhibition of LPS-induced nuclear translocation of p-STAT1 in mouse BV-2 cells at 10 uM preincubated for 2 hrs followed LPS addition and measured after 3 hrs by Western blot analysis; assay type: functional, cell-based; settings: time 5.0 hrs
[2] = Acute toxicity in male Kunming mouse assessed as histopathological changes in lung at 250 mg/kg administered via gavage by H and E staining based analysis; assay type: organism-based; settings: in vivo, po
BV-2 [3] = assay: Antiinflammatory activity in LPS-induced mouse BV-2 cells assessed as decrease in IL-6 production preincubated for 2 hrs followed by LPS addition and measured after 24 hrs by qRT-PCR analysis; assay type: functional, cell-based; settings: dose 5-10 µM, time 26.0 hrs
BV-2 [4] = assay: Inhibition of LPS-induced nuclear translocation of p-STAT3 in mouse BV-2 cells at 10 uM preincubated for 2 hrs followed LPS addition and measured after 3 hrs by DAPI staining based immunofluorescence assay; assay type: functional, cell-based; settings: time 5.0 hrs
BV-2 [5] = assay: Inhibition of LPS-induced nuclear translocation of p-STAT3 in mouse BV-2 cells at 10 uM preincubated for 2 hrs followed LPS addition and measured after 3 hrs by Western blot analysis; assay type: functional, cell-based; settings: time 5.0 hrs
[6] = Acute toxicity in male Kunming mouse assessed as effect on organ coefficient of liver at 250 mg/kg administered via gavage; assay type: organism-based; settings: in vivo, po
[7] = Acute toxicity in female Kunming mouse assessed as effect on organ coefficient of liver at 250 mg/kg administered via gavage; assay type: organism-based; settings: in vivo, po
BV-2 [8] = assay: Antiinflammatory activity in LPS induced mouse BV-2 cells assessed as downregulation of IL-1beta mRNA expression level preincubated for 2 hrs followed by LPS addition and measured after 24 hrs by qRT-PCR analysis; assay type: functional, cell-based; settings: dose 5-10 µM, time 26.0 hrs
[9] = Acute toxicity in male Kunming mouse assessed as effect on organ coefficient of lung at 250 mg/kg administered via gavage; assay type: organism-based; settings: in vivo, po
[10] = Cytotoxicity against mouse BV-2 cells assessed as cell viability at 10 uM by MTT assay relative to control; assay type: toxicity, cell-based; settings: read-out: Activity
[11] = Acute toxicity in male Kunming mouse assessed as histopathological changes in heart at 250 mg/kg administered via gavage by H and E staining based analysis; assay type: organism-based; settings: in vivo, po
[12] = Acute toxicity in male Kunming mouse assessed as effect on organ coefficient of heart at 250 mg/kg administered via gavage; assay type: organism-based; settings: in vivo, po
BV-2 [13] = assay: Antiinflammatory activity in LPS induced mouse BV-2 cells assessed as downregulation of TNF-alpha mRNA expression level preincubated for 2 hrs followed by LPS addition and measured after 24 hrs by qRT-PCR analysis; assay type: functional, cell-based; settings: dose 5-10 µM, time 26.0 hrs
[14] = Acute toxicity in female Kunming mouse assessed as effect on GOT level in blood at 250 mg/kg administered via gavage by biochemical analysis; assay type: organism-based; settings: in vivo, po
[15] = Acute toxicity in male Kunming mouse assessed as histopathological changes in spleen at 250 mg/kg administered via gavage by H and E staining based analysis; assay type: organism-based; settings: in vivo, po
BV-2 [16] = assay: Antiinflammatory activity in LPS-induced mouse BV-2 cells assessed as downregulation of iNOS protein expression level preincubated for 2 hrs followed by LPS addition and measured after 24 hrs by Western blot analysis; assay type: functional, cell-based; settings: dose 5-10 µM, time 26.0 hrs
BV-2 [17] = assay: Antiinflammatory activity in LPS-induced mouse BV-2 cells assessed as downregulation of COX2 mRNA expression level at 5 to 10 uM preincubated for 2 hrs followed by LPS addition and measured after 6 hrs by qRT-PCR analysis; assay type: functional, cell-based; settings: dose 5-10 µM, time 8.0 hrs

In the case of COc1c2n(cc(C(=O)Nc3cccc(-c4cn(-c5ccccc5Cl)nn4)c3)c1=O)C[C@@H]1OCC[C@@H](C)N1C2=O, the inhibition (BV-2 [1]) is reported as “Active”, the Activity [2] is reported as “Non-toxic” and the Activity (BV-2 [3]) is reported as “Dose-dependent-effect”. The inhibition (BV-2 [4]) was “Active”, the inhibition (BV-2 [5]) was “Active” and the Activity [6] was “Non-toxic”. For the same compound, the Activity [7] was “Non-toxic”, the Activity (BV-2 [8]) was “Dose-dependent-effect” and the Activity [9] was “Non-toxic”. For the same compound, the viability at 10 µM [10] was 86.7%, the Activity [11] was “Non-toxic” and the Activity [12] was “Non-toxic”. For the same compound, the Activity (BV-2 [13]) was “Dose-dependent-effect”, the Activity [14] was “Non-toxic” and the Activity [15] was “Non-toxic”. For the same compound, the Activity (BV-2 [16]) was “Dose-dependent-effect” and the Activity (BV-2 [17]) was “Active”.
